Data on one compound can be found in patent US20240000754A1, “METHODS OF TREATMENT OF LIVER FAILURE” (GENFIT, priority 2020, published 2024).

Molecules are shown by their SMILES. Where only a bound is given, the exact number is not on record here.

In assay [1] the test system is hepatic transcriptome of mice. Nature of the assay: Hepatic transcriptomic analysis (RNA-seq) in CDAA/c diet-fed mice treated with NTZ. The conditions noted are these: NTZ 100 mg/kg/day versus CDAA/c alone, adjusted p=2.6×10-13. Type of assay: in vivo.
Method: Liver injury was induced in 5-6 week-old male C57Bl/6 mice (Janvier Labs, France) by feeding them a cholesterol (1%) supplemented choline-deficient L-amino acid-defined diet (CDAA/c) (Ssniff, Germany) for 12 weeks (n=12). Some animals received from day 1 and throughout the study CDAA/c diet supplemented with NTZ (Interchim, France) (100 mg/kg/day) (n=8). Mice receiving choline supplemented L-amino acid-defined (CSAA) diet served as additional controls (n=6).
Total RNA was isolated from mice livers using Nucleospin® 96 RNA kit (ref 740709.4, Macherey Nagel, France) (n=5). Upon measurement of RNA samples concentration by Multiskan™ GO spectrophotometer (Thermo Scientific, France), the quality was assessed using 2100 Bioanalyser from Agilent (USA). […]
Then reads were aligned on the genome reference (Mus musculus GRCm38.90—GenBank assembly accession GCA_000001635.2) with rnacocktail using hisat2 v.2.1.0 as aligner with default parameters (Sahraeian et al. Nature communications 2017). […]
To identify differentially expressed genes (DE genes), we used R (version 3.4.3) and the DESEq2 library (v. 1.18.1). […] Briefly, the count matrix produced by FeatureCounts was analyzed by the DESeqDataSetFromMatrix( ) function followed by the DEseq( ) function from the DESeq2 library. […]
For assay [2], the system named is rats with BDL+LPS-induced ACLF. Description: Kidney function in BDL+LPS-induced ACLF in rats. It counts as in vivo. The conditions noted are these: NTZ 100 mg/kg gavage, 3 hours post-LPS. The protocol:
BDL surgery of rats and acute decompensation were performed as in the previous example.
Renal injury was evaluated by serum cystatin C concentrations determined by ELISA (Mouse/Rat Cystatin C Immunoassay Quantikine® ELISA, MSCTC0, R&D Systems).

Assay [3] concerns rats with BDL+LPS-induced ACLF. Nature of the assay: Brain edema in BDL+LPS-induced ACLF in rats. The following applies: LPS 1 μg/kg i.p., NTZ 100 mg/kg gavage just before LPS, 3 hours post-LPS. It counts as in vivo.
Method: BDL surgery was performed on 37 Sprague Dawley rats weighing approximately 270 g at Charles River laboratory (France). After anesthesia with isoflurane (Vetflurane, Alcyon, France), and cutaneous application of 2% lidocaine (Alcyon), a median laparotomy was performed to expose the liver and duodenum. The main bile duct was identified and dissected. After that, the bile duct was ligated in two parts: a first ligation was made in the middle of the bile duct, and the second ligation was made above the entrance of the pancreatic duct. The bile duct was then cut in the middle, to avoid recanalization.
The animals were then transferred to Genfit's animal facility (France) after a minimum of 5 days of recovery post-surgery. […] Unoperated animals were included in the study as healthy controls.
Twenty-two days after BDL surgery, acute decompensation was induced by intraperitoneal administration of 1 μg/kg LPS (Escherichia coli O111:64, Sigma-Aldrich, Germany). Four rats with BDL received phosphate buffer saline (PBS, Fisher Scientific, USA) instead of LPS to be used as BDL controls. Each animal was continuously observed following LPS injection in order to assess the degree of severity of the inflammatory response and pain. […]
Assay [4] relates to TAA induced cirrhosis in rats. Nature of the assay: TAA-induced cirrhosis in rats: liver function and fibrosis. The conditions noted are these: 16 weeks TAA. Type of assay: in vivo.
Assay [5] has as its system mice with acetaminophen (APAP) intoxication. Nature of the assay: Acetaminophen-induced acute liver failure in mice. It counts as in vivo. The following applies: APAP 300 mg/kg i.p., NTZ 50 mg/kg gavage 30 minutes before, 6 hours after APAP. The protocol: Acute liver failure was induced by administration of toxic dose of acetaminophen (APAP) in mice. After a 5-day acclimation period, 8 week-old C57BL/6J male mice (Janvier, France) were stratified into 3 groups of 10 mice according to their body weight. All mice were fasted overnight before the administration of 300 mg/kg APAP by intraperitoneal injection. […] Mice had free access to food and water right after APAP injection. Six hours after APAP injection, blood was collected in all mice on heparin by retro-orbital sinus punction under anesthesia. Liver injury was assessed by plasma aspartate aminotransferase (AST) determined using a Horiba Pentra 400 machine and related Pentra assay kit (Horiba France SAS, France). Animals were sacrificed 24 hours post-APAP administration by cervical dislocation, exsanguinated with saline and liver samples were collected and weighed.

Assay [6] has as its system HepG2 cells. Description: NH4Cl-induced mortality in HepG2 cells (CytoTox-Glow dead cell protease activity). It counts as cell-based, human. The conditions noted are these: HepG2, NTZ 0-5 μM, 60 mM and 120 mM NH4Cl, 14 hours. As for the experimental part: After cell adherence (10 hours), cells were washed with PBS and were incubated in the presence of 0, 60, or 120 mM of NH4Cl (Fluka, France) in DMEM without L-Glutamine and FBS for 14 hours.
Cytotoxicity was measured using CytoTox-Glow™ assay (#G9291, Promega, USA). Briefly, 100 μL of reagent was added per well, and the plates were incubated in the dark at room temperature for 15 min. The CytoTox-Glow™ Assay is a luminescent cytotoxicity assay that measures the relative number of dead cells in cell populations. Luminescence was measured using a Spark microplate reader (#30086376, Tecan, USA). The amount of luminescence (RLU) directly correlates with the percentage of cells undergoing cytotoxic stress.

Assay [7] has as its system rats with CCl4+LPS-induced ACLF. Nature of the assay: Example 9: CCl4+LPS-induced acute-on-chronic liver failure in rats. It counts as in vivo. The protocol:
This study included 4 phases: • 1) Pre-sensitization phase: phenobarbital ([…]) (ref P5178-25G, Sigma-Aldrich) was added to the drinking water of 4-week-old male Sprague-Dawley rats (˜200 g) for 2 weeks prior to CCl4 administration • 2) Induction phase: hepatic severe fibrosis was induced by repeated oral tetrachlorure (CCl4) administrations (twice a week, increasing doses from 0.10 to 0.85 ml/kg, twice weekly) for 10 or 15 weeks, with the same protocol as the protocol described in example 8. • 3) Treatment phase: after 15 weeks of CCl4 administrations, gavage was stopped one week before LPS administration. […] A last dose (50 mg/kg) was administered 30 minutes just before ACLF induction. • 4) ACLF induction: LPS was administrated i.p. at 0.03 mg/kg.
LPS solution (Escherichia coli O111:64, Sigma-Aldrich, Germany) was prepared under a microbiological safety cabinet and was dissolved in phosphate buffer saline (PBS) at 15 μg/mL, aliquoted and frozen until the day of experiment. LPS was administered at 2 m L/kg to the rats.
38 male Sprague-Dawley rats (Janvier Labs, France) have been allocated to this study. Animals had ad libitum access to water and chow diet (ref E15000-04, Ssniff, Germany) all along the study. After 9 weeks of CCl4 administration, animals were randomly allocated to 2 groups according to ammonia and albumin plasmatic levels (in order to have similar means in the two groups).
ACLF was evaluated, at the end of the study, by biochemical analyses of hepatic and renal injury or function biomarkers.
At the end of the study, blood was collected by sublingual vein puncture under light isoflurane anesthesia and transferred to ethylenediamine tetra-acetic acid (EDTA), serum-gel, and lithium heparin tubes. EDTA and lithium heparin tubes containing blood were rapidly centrifuged and the plasma fraction was collected. Plasma aliquot of heparin lithium were snap frozen in liquid nitrogen and stored at −80° C., EDTA-plasma aliquots were stored at −20° C. and serum-gel tubes were kept at room temperature for 30 minutes, centrifuged and stored at −20° C.
Experimental results are expressed as mean±standard deviation and plotted as bar graphs. Comparison between groups was tested using a Student T test for all variables that follows a normal distribution (#: p<0.05; ##: p<0.01; ###: p<0.001). A Welsh test was applied in case of different variances between groups (3a: p<0.05; cm: p<0.01; man: p<0.001). A log-transformation was applied for plasma ALT and AST in all samples to obtain a normal data distribution. For other non-normally distributed variables, a non-parametric Mann-Whitney test was applied ($: p<0.05; $$: p<0.01; $$$: p<0.001). Differences to the Ctrl week 10 (W10) group are notified, if not otherwise specified.

Assay [8] deals with cirrhotic rats after LPS injection (ACLF). Description: ACLF model: LPS injection in TAA-cirrhotic rats. It counts as in vivo. The protocol:
Male Sprague Dawley rats (175-200 g) (Janvier Labs, France) received intraperitoneal injections of thioacetamide (TAA) 3 times a week at the dose of 150 mg/kg during the first week and then at 200 mg/kg during 14 weeks to induce cirrhosis. Rats were stratified to treatment groups (n=5 per group) based on mean plasma levels of fibrosis markers (alpha-2 macroglobulin and Metallopeptidase Inhibitor 1 (TIMP1)) and liver function tests (plasma total bile acid and albumin) obtained from sublingual blood sampling.
After cirrhosis induction, rats received a single intraperitoneal injection of 0.05 mg/kg lipopolysaccharide (LPS from Escherichia coli O111:64, Sigma-Aldrich) to induce ACLF, one week after TAA administration was stopped. […] Plasma were obtained from sublingual blood sampling just before sacrifice.
The concentration of total bile acids was measured using the appropriate Randox kit for Daytona Plus automate (Randox, cat #BI 3863). In the presence of Thio-NAD, the enzyme 3-alpha hydroxysteroid dehydrogenase (3-a HSD) converts bile acids to 3-keto steroids and Thio-NADH. The reaction is reversible and 3-a HSD could convert 3-keto steroids and Thio-NADH to bile acids and Thio-NAD. In the presence of excess NADH, the enzyme cycling occurs efficiently and the rate of formation of Thio-NADH is determined by measuring specific change of absorbance at 405 nm.

Assay [9] deals with rats with CCl4+LPS-induced ACLF. Description: Example 8: renal function markers in CCl4+LPS-induced ACLF in rats. It counts as in vivo. The conditions noted are these: 15 weeks CCl4 + LPS, NTZ 50 mg/kg BID 3 days, 24 h after LPS. As for the experimental part:
Cirrhosis decompensation often associates with alterations of kidney functions. […] Briefly, ACLF was induced by lipopolysaccharide (LPS) injection in rats with advanced liver fibrosis/cirrhosis induced by repeated carbon tetrachloride (CCl4) administrations for 15 weeks.
The protocol study included 4 phases: • 1) Pre-sensitization phase: phenobarbital (P5178, Sigma Aldrich) was added to the drinking water ([…]) of 32 4-week-old male Sprague-Dawley rats (˜200 gr, Janvier Lab) for 2 weeks in order to activate cytochrome enzymes that metabolize CCl4. • 2) Induction of liver fibrosis: chronic liver damages were induced by repeated (twice a week) oral CCl4 (ref: 289116, Sigma Aldrich; diluted in olive oil) administrations (increasing doses starting with 0.10 ml/kg, adding 0.05-0.10 ml/kg at each administration to reach 0.85 ml/kg at 7 weeks and thereafter) for up to 15 weeks, with final doses as follows:
• 3) Treatment phase: after 15 weeks of CCl4 administration, CCl4 gavage was stopped one week before LPS administration.
During the first hours following LPS administration, each animal was continuously observed in order to assess the degree of severity of the inflammatory response and pain. The appearance of the animal (change in fur, skin color), the degree of activity and vigilance (response to a stimulus, opening of the eyelids, activity . . . ), gait and attitude were monitored. Any animal showing evident signs of suffering and close to death was euthanized. […] All surviving animals were euthanized 24 h after LPS challenge for plasma and tissue analyses. […]
Renal injury was evaluated by plasma creatinine, urea and cystatin C concentrations. Plasma creatinine and urea concentrations were measured using the appropriate Randox kits (CR 8316, UR 8334, respectively) for Daytona plus automate (Randox, cat #BR 8377) using the manufacturer instructions. Plasma cystatin C concentration was determined by ELISA (Mouse/Rat Cystatin C Immunoassay Quantikine® ELISA, MSCTC0, R&D Systems).

Setting [10] is: NTZ 30 mg/kg/day in diet for last 4 weeks, versus TAA control.

Take `CC(=O)Oc1ccccc1C(=O)Nc1ncc([N+](=O)[O-])s1` [NTZ, nitazoxanide]: in [1], the “Induction of GluI expression” value stood at 1.6 fold. Besides, the “Serum cystatin C” value in assay [2] is reported as “drastically reduced cystatin C, almost to the level of healthy controls”. For the same compound, in [3], the “Brain water (brain edema, % of water contained in brain)” value was “remarkably reduced”. In assay [4] (NTZ 30 mg/kg/day for last 4 weeks, TAA control 7.74±0.38%, p=0.77), this compound returned a Collagen proportionate area of 7.53±0.64%. Also, in assay [4] (setting [10]), the Plasma albumin entry is “rescued” and the Plasma total bilirubin entry is listed as “drastically decreased”. Further, in [5], the “Plasma AST” value is reported as “greatly reduced AST to a level similar to that with NAC”. Also, in assay [6], the “Mortality rate (dead cell protease activity)” value is “reduced the mortality rate in a dose-dependent manner”. Also, the “Survival 24 h after LPS injection” value in assay [7] (rats, 15 weeks CCl4 + LPS 0.03 mg/kg i.p., NTZ 50 mg/kg BID 3 days, same in vehicle group) is listed as 60%. Also, the “Reduction of serum IFNγ” value in assay [7] (rats, CCl4 15 weeks and LPS, p=0.04) is listed as 56%. In addition, in assay [7] (rats, CCl4 + LPS, NTZ 50 mg/kg BID 3 days, same in vehicle group (4/10 rats)), the “Mortality over 24 hours” value amounted to 40%. In addition, in assay [7] (surviving rats 24 hours post-LPS, LPS-induced renal impairment, p=0.002), the “Change of plasma urea” value was −92%. For the same compound, in assay [7] (surviving rats 24 hours post-LPS, LPS-induced renal impairment, p=0.009), the “Change of plasma creatinine” value is −102%. Besides, the “Change of plasma cystatin C” value in assay [7] (surviving rats 24 hours post-LPS, LPS-induced renal impairment, p=0.02) was −166%. Also, the “Reduction of plasma AST” value in assay [7] (surviving rats 24 hours post-LPS, NTZ versus vehicle, p=0.005) amounted to 87%. Further, the “Reduction of plasma ALT” value in [7] (surviving rats 24 hours post-LPS, NTZ versus vehicle, p=0.007) is listed as 80%. Also, the “Reduction of total bilirubin” value in [7] (surviving rats 24 hours post-LPS, plasma, p=0.02) is on record as 80%. Besides, the “Restoration of albumin production” value in assay [7] (surviving rats 24 hours post-LPS, plasma, p=0.04) turned out to be 95%. Also, the “Plasma GGT level” value in assay [7] (surviving rats 24 hours post-LPS, LPS vehicle 11.2 U/I) is less than 6.15 U/I. Besides, the “Circulating (plasma total) bile acids level” value in [8] (TAA-cirrhotic rats after ACLF induction by LPS, versus vehicle) is on record as “reduced”. In addition, the “Delay of time to death” value in assay [8] (TAA-cirrhotic rats, LPS 0.05 mg/kg i.p., NTZ oral gavage 50 mg/kg/day BID 3 days plus last dose 30 minutes before LPS) is 1 h. Further, in [9], the Plasma creatinine entry is “restoring creatinine, urea and cystatin C levels to the levels of the olive oil controls”; the “Plasma cystatin C” value was “restoring creatinine, urea and cystatin C levels to the levels of the olive oil controls”; the Plasma urea result is “restoring creatinine, urea and cystatin C levels to the levels of the olive oil controls”.
